Biological target: T1, PTP-1B (Homo sapiens, UniProt P18031)
T1 construct: PTP-1B (purified, 1 mg/mL) as a 1:250 dilution
T1 sequence (P18031 1-321 limits assumed): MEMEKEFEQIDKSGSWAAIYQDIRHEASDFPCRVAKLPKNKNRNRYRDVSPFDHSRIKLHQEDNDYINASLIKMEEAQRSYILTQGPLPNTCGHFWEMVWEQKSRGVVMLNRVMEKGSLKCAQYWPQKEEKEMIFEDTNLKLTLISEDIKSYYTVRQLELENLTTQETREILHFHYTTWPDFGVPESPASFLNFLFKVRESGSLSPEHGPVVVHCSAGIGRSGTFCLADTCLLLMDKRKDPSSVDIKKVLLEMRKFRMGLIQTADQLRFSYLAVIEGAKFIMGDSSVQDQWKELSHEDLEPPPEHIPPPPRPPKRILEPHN
Assay: pNPP tyrosine phosphatase inhibition assay, PTP-1B
Type: biochemical
Settings: pNPP assay, PTP-1B; read-out: Activity Class (IC50 ranges)
Description: The compounds provided herein are evaluated for biological activity as inhibitors of PTP-1B using, for example, a pNPP assay can be used to screen compounds for tyrosine phosphatase inhibitory activity as described in the Examples.
A 5× stock of pNPP (p-nitrophenol phosphate) substrate is prepared as 50 mM pNPP in assay buffer. Various tyrosine phosphatase solutions can be prepared as follows: • PTP-1B (purified, 1 mg/mL) as a 1:250 dilution (to a final concentration of 4:g/mL); • TC-PTP (NEB, 1000 units in 100:L) as a 1:50 dilution (to a final concentration of 2U/10:L (4:g/mL)); • CD45 (Calbiochem, 20:g, 400 units in 100:L) as a 1:50 dilution (to a final concentration of 0.8U/10:L (4:g/mL)); • LAR (NEB, 1000 units in 200:L) as a 1:75 dilution (to a final concentration of 0.7U/10:L (4:g/mL)); and • PTP-β (UBI, #14-350, 10,000 units, 40:g/571:L) as a 1:17.5 dilution (to a final concentration of 10U/10:L (4:g/mL));
The compound to be tested is prepared as 1:16.7 and 1:50 dilutions from stock in a total volume of […] DMSO to give final concentrations of 626 and 200:M. The reaction mixtures are prepared in a 96-well microtiter plate (on ice) as 55:L assay buffer, 5:L of the diluted compound (to a final concentration of 31.3 and 10:M), 20:L of the pNPP substrate solution (to a final concentration of 10 mM) and 20:L PTPase in assay buffer. The reactants are mixed well, the plate placed in a water bath at 30° C. and incubated for 10 minutes. The reaction is then terminated by adding 100:L of 2M K2CO3 per well, and the absorbance is measured at 405 nm by conventional means.
Unless otherwise indicated, this assay was used to determine activity for the selected compounds whose activity is provided in Table 1.

Row | IC50 [nM] | Molecule
1 | < 99 | O=P(O)(O)C(F)(F)c1ccc(CN(Cc2ccc(C(F)(F)P(=O)(O)O)c(Br)c2)S(=O)(=O)c2ccc3ccccc3c2)cc1Br [Compound 99, [(2-Bromo-4-{[[3-bromo-4-(difluoro-phosphono-methyl)-benzyl]-(naphthalene-2-sulfonyl)-amino]-methyl}-phenyl)-difluoro-methyl]-phosphonic acid]
2 | 100 to 249 | COc1ccccc1S(=O)(=O)N(Cc1ccc(-c2ccc(CC#N)cc2)cc1)Cc1ccc(C(F)(F)P(=O)(O)O)c(Cl)c1 [Compound 152, [(2-Chloro-4-{[(4′-cyanomethyl-biphenyl-4-ylmethyl)-(2-methoxy-benzenesulfonyl)-amino]-methyl}-phenyl)-difluoro-methyl]-phosphonic acid]
3 | 100 to 249 | COc1ccccc1S(=O)(=O)N(Cc1ccc(-c2cccc(S(C)(=O)=O)c2)cc1)Cc1ccc(C(F)(F)P(=O)(O)O)c(Cl)c1 [Compound 148, [(2-Chloro-4-{[(3′-methanesulfonyl-biphenyl-4-ylmethyl)-(2-methoxy-benzenesulfonyl)-amino]-methyl}-phenyl)-difluoro-methyl]-phosphonic acid]
4 | 250 to 499 | O=P(O)(O)C(F)(F)c1ccc(CN(Cc2ccc(C(F)(F)P(=O)(O)O)cc2)S(=O)(=O)c2ccccc2F)cc1 [Compound 83, [(4-{[[4-(Difluoro-phosphono-methyl)-benzyl]-(2-fluoro-benzenesulfonyl)-amino]-methyl}-phenyl)-difluoro-methyl]-phosphonic acid]
5 | > 25000 | COc1ccccc1S(=O)(=O)N(Cc1ccc(C(=O)O)cc1)Cc1ccc(-c2nnn[nH]2)cc1 [Compound 116, N-(4-[hydroxycarbonyl]-benzyl)-2-methoxy-N-[4-(1H-tetrazol-5-yl)-benzyl]-benzenesulfonamide]
6 | < 99 | COc1ccccc1S(=O)(=O)N(Cc1ccc(-c2ccc(O)c(C(=O)O)c2)cc1)Cc1ccc(C(F)(F)P(=O)(O)O)c(Cl)c1 [Compound 156, 4′-{[[3-Chloro-4-(difluoro-phosphono-methyl)-benzyl]-(2-methoxy-benzenesulfonyl)-amino]-methyl}-4-hydroxy-biphenyl-3-carboxylic acid]
7 | > 25000 | O=P(O)(O)C(F)(F)c1ccc(CN(Cc2ccccc2)Cc2ccc(C(F)(F)P(=O)(O)O)cc2)cc1 [Compound 65, {[4-({Benzyl-[4-(difluoro-phosphono-methyl)-benzyl]-amino}-methyl)-phenyl]-difluoro-methyl}-phosphonic acid]
8 | 250 to 499 | O=P(O)(O)C(F)(F)c1ccc(CN(Cc2ccc(C(F)(F)P(=O)(O)O)cc2)S(=O)(=O)c2cccc(-c3ccccc3)c2)cc1 [Compound 74, {[4-({(Biphenyl-3-sulfonyl)-[4-(difluoro-phosphono-methyl)-benzyl]-amino}-methyl)-phenyl]-difluoro-methyl}-phosphonic acid]
9 | 100 to 249 | O=C(O)CCc1ccc(S(=O)(=O)N(Cc2ccc(Cl)c(Cl)c2)Cc2ccc(C(F)(F)P(=O)(O)O)c(Br)c2)cc1 [Compound 122, 3-{4-[[3-Bromo-4-(difluoro-phosphono-methyl)-benzyl]-(3,4-dichloro-benzyl)-sulfamoyl]-phenyl}-propionic acid]
10 | > 25000 | COc1ccccc1S(=O)(=O)N(Cc1ccc(OCc2nn[nH]n2)cc1)Cc1ccc(S(C)(=O)=O)cc1 [Compound 128, N-(4-Methanesulfonyl-benzyl)-2-methoxy-N-[4-(2H-tetrazol-5-ylmethoxy)-benzyl]-benzenesulfonamide]
11 | < 99 | COc1ccccc1S(=O)(=O)N(Cc1ccc(-c2ccc(C(=O)O)c(F)c2)cc1)Cc1ccc(C(F)(F)P(=O)(O)O)c(Cl)c1 [Compound 177, 4′-{[[3-Chloro-4-(difluoro-phosphono-methyl)-benzyl]-(2-methoxy-benzenesulfonyl)-amino]-methyl}-3-fluoro-biphenyl-4-carboxylic acid]
12 | 250 to 499 | COC(=O)c1ccc(CN(Cc2ccc(C(F)(F)P(=O)(O)O)c(Cl)c2)S(=O)(=O)c2ccccc2)cc1 [Compound 234, 4-({Benzenesulfonyl-[3-chloro-4-(difluoro-phosphono-methyl)-benzyl]-amino}-methyl)-benzoic acid methyl ester]
13 | > 25000 | 2,2-Dimethyl-propionic acid [(2-bromo-4-{[(4-methanesulfonyl-phenyl)-(2-methoxy-benzenesulfonyl)-amino]-methyl}-phenyl)-difluoro-methyl]-(2,2-dimethyl-propionyloxymethoxy)-phosphinoyloxymethyl ester [Compound 229]
14 | 250 to 499 | O=P(O)(O)C(F)(F)c1ccc(CN(Cc2ccc(Cl)c(Cl)c2)S(=O)(=O)c2ccccn2)cc1Br [Compound 100, [(2-Bromo-4-{[(3,4-dichloro-benzyl)-(pyridine-2-sulfonyl)-amino]-methyl}-phenyl)-difluoro-methyl]-phosphonic acid]
15 | 250 to 499 | O=P(O)(O)C(F)(F)c1ccc(CN(Cc2ccc(C(F)(F)P(=O)(O)O)cc2)S(=O)(=O)c2ccccc2Br)cc1 [Compound 84, {[4-({(2-Bromo-benzenesulfonyl)-[4-(difluoro-phosphono-methyl)-benzyl]-amino}-methyl)-phenyl]-difluoro-methyl}-phosphonic acid]
16 | 100 to 249 | O=P(O)(O)C(F)(F)c1ccc(CN(Cc2ccc(Cl)c(Cl)c2)S(=O)(=O)c2ccccc2Cl)cc1Br [Compound 82]
17 | 250 to 499 | COc1ccccc1S(=O)(=O)N(CCc1cccc(-c2cccc(C(=O)O)c2)c1)Cc1ccc(C(F)(F)P(=O)(O)O)c(Cl)c1 [Compound 189, 3′-{2-[[3-Chloro-4-(difluoro-phosphono-methyl)-benzyl]-(2-methoxy-benzenesulfonyl)-amino]-ethyl}-biphenyl-3-carboxylic acid]
18 | 250 to 499 | COc1ccccc1S(=O)(=O)N(Cc1ccc(C(F)(F)P(=O)(O)O)c(Cl)c1)Cc1ccccc1C [Compound 167, [(2-Chloro-4-{[(2-methoxy-benzenesulfonyl)-(2-methyl-benzyl)-amino]-methyl}-phenyl)-difluoro-methyl]-phosphonic acid]
19 | > 25000 | COc1ccccc1S(=O)(=O)N(Cc1ccc(C#N)cc1)Cc1ccc(NS(=O)(=O)C(F)(F)F)c(C(=O)O)c1 [Compound 139, 5-{[(4-Cyano-benzyl)-(2-methoxy-benzenesulfonyl)-amino]-methyl}-2-trifluoromethanesulfonylamino-benzoic acid]
20 | 250 to 499 | O=P(O)(O)C(F)(F)c1ccc(CN(Cc2ccc(C(F)(F)P(=O)(O)O)cc2)S(=O)(=O)c2ccc(Cl)cc2)cc1 [Compound 73, {[4-({(4-Chloro-benzenesulfonyl)-[4-(difluoro-phosphono-methyl)-benzyl]-amino}-methyl)-phenyl]-difluoro-methyl}-phosphonic acid]
21 | > 25000 | O=C(O)c1ccc(CN(Cc2ccc(Cl)c(Cl)c2)S(=O)(=O)c2ccccc2Cl)cc1Br [Compound 94, 2-Bromo-4-{[(2-chloro-benzenesulfonyl)-(3,4-dichloro-benzyl)-amino]-methyl}-benzoic acid]
22 | 2500 to 25000 | O=P(O)(O)C(F)(F)c1ccc(CN(Cc2ccc(C(F)(F)P(=O)(O)O)cc2)S(=O)(=O)c2cccc3ccccc23)cc1 [Compound 67, [(4-{[[4-(Difluoro-phosphono-methyl)-benzyl]-(naphthalene-1-sulfonyl)-amino]-methyl}-phenyl)-difluoro-methyl]-phosphonic acid]

Row | Molecule | IC50 [nM]
23 | COc1ccccc1S(=O)(=O)N(Cc1ccc(C#N)cc1)Cc1ccc(NC(=O)C(=O)O)cc1 [Compound 129, N-(4-(N-oxalylamino]benzyl)-N-(4-cyanobenzyl)-(2-methoxy)benzenesulfonamide] | > 25000
24 | COc1ccccc1S(=O)(=O)N(Cc1ccc(C#N)cc1)Cc1ccc(NC(=O)C(=O)O)cc1 [Compound 118, N-(4-(N-oxalylamino]benzyl)-N-(4-cyanobenzyl)-(2-methoxy)benzenesulfonamide] | > 25000
25 | {[4-(difluorophosphonomethyl)-3-chlorophenyl]methyl}{[2-(3-ethylphenyl)phenyl]methyl}[(2-methoxyphenyl)sulfonyl]amine [Compound 196] | 100 to 249
26 | Methyl 3-{4-[({[4-(difluorophosphonomethyl)-3-chlorophenyl]methyl}[(2-methoxyphenyl)sulfonyl]amino)methyl]phenyl}-5-bromobenzoate [Compound 194] | 250 to 499
